ChEMBL document CHEMBL1201862, “PubChem BioAssay data set” (2004)
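Method: 48-hour compound exposure of cells in 96-well plates, five concentrations, linear interpolation of endpoints. GI50 is the concentration that inhibits growth by half.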 Calls of active or inactive are those of the source. No stated cut-off is given here; in the data, active = GI50 up to about 1.1 µM and inactive = higher.

Columns and labels:
Assay in all cases: NCI anticancer screen, dose series, 48 h
SF-268 = tested on: SF-268
HOP-62 = tested on: HOP-62
A549 = tested on: A549
NCI-H460 = tested on: NCI-H460
SN12C = tested on: SN12C
EKVX = tested on: EKVX
NCI-H522 = tested on: NCI-H522
HL-60 = tested on: HL-60
KM12 = tested on: KM12
SK-MEL-5 = tested on: SK-MEL-5
OVCAR-8 = tested on: OVCAR-8
HCT-116 = tested on: HCT-116
SNB-75 = tested on: SNB-75
MOLT-4 = tested on: MOLT-4
SK-OV-3 = tested on: SK-OV-3
K562 = tested on: K562
IGROV-1 = tested on: IGROV-1
SNB-19 = tested on: SNB-19
UO-31 = tested on: UO-31
HCT-15 = tested on: HCT-15

SMILES	GI50 (SF-268)	GI50 (HOP-62)	GI50 (A549)	GI50 (NCI-H460)	GI50 (SN12C)	GI50 (EKVX)	GI50 (NCI-H522)	GI50 (HL-60)	GI50 (KM12)	GI50 (SK-MEL-5)	GI50 (OVCAR-8)	GI50 (HCT-116)	GI50 (SNB-75)	GI50 (MOLT-4)	GI50 (SK-OV-3)	GI50 (K562)	GI50 (IGROV-1)	GI50 (SNB-19)	GI50 (UO-31)	GI50 (HCT-15)
CN(C)c1nc(N)nc(CS)n1	> 100 µM (inactive)	56.1 µM (inactive)	51.3 µM (inactive)	46 µM (inactive)	> 100 µM (inactive)	> 100 µM (inactive)	> 100 µM (inactive)	23.3 µM (inactive)	> 100 µM (inactive)	> 100 µM (inactive)	> 100 µM (inactive)	> 100 µM (inactive)	> 100 µM (inactive)	50 µM (inactive)	> 100 µM (inactive)	29.9 µM (inactive)	> 100 µM (inactive)	> 100 µM (inactive)	> 100 µM (inactive)	56.4 µM
BrCC[N+]12CCCN1CCC2	24.9 µM (inactive)	> 47.3 µM (inactive)	41.1 µM (inactive)	22.3 µM (inactive)	14.7 µM (inactive)	21.6 µM (inactive)	0.664 µM (active)	2.9 µM (inactive)	> 67.3 µM (inactive)	18 µM (inactive)	19 µM (inactive)	5.66 µM (inactive)	16.7 µM (inactive)	3.43 µM (inactive)	> 65.5 µM (inactive)	2.9 µM (inactive)	22 µM (inactive)	> 43 µM (inactive)	13.8 µM (inactive)	12.3 µM
C=CC[N+](CCO)(CCO)CCCCCCCCCCCCCCCCCC	3.33 µM (inactive)	6.38 µM (inactive)	11.3 µM (inactive)	4.05 µM (inactive)	6.78 µM (inactive)	17 µM (inactive)	3.77 µM (inactive)	0.714 µM (active)	1.99 µM (inactive)	8.13 µM (inactive)	9.25 µM (inactive)	3.4 µM (inactive)	2.43 µM (inactive)	1.61 µM (inactive)	10.9 µM (inactive)	2.96 µM (inactive)	1.97 µM (inactive)	8.91 µM (inactive)	9.62 µM (inactive)	12.8 µM
CC(C)(C)c1cc(C(=O)/C=C/c2ccc(C(=O)O)cc2)cc(C(C)(C)C)c1	2.18 µM (inactive)	2.32 µM (inactive)	2.07 µM (inactive)	1.94 µM (inactive)	2.11 µM (inactive)	3.19 µM (inactive)	4.34 µM (inactive)	3.51 µM (inactive)	2.4 µM (inactive)	3.99 µM (inactive)	2.44 µM (inactive)	2.73 µM (inactive)	0.885 µM (active)	2.37 µM (inactive)	2.87 µM (inactive)	3.21 µM (inactive)	3.8 µM (inactive)	2.36 µM (inactive)	5.47 µM (inactive)	1.91 µM
C/C=C/c1cc2c(c(=O)o1)C(=O)[C@@H](O)[C@H](C)O2	13 µM (inactive)	26.5 µM (inactive)	19.7 µM (inactive)	21.7 µM (inactive)	15.4 µM (inactive)	17.2 µM (inactive)	7.91 µM (inactive)	4.32 µM (inactive)	14.4 µM (inactive)	15 µM (inactive)	16.7 µM (inactive)	7.8 µM (inactive)	18.7 µM (inactive)	9.71 µM (inactive)	37.6 µM (inactive)	8.59 µM (inactive)	8.32 µM (inactive)	19.5 µM (inactive)	19.7 µM (inactive)	11.2 µM
C=CCCCCn1c2ccccc2c2c(C)c3cnccc3c(C)c21	11.3 µM (inactive)	16.2 µM (inactive)	8.99 µM (inactive)	6.64 µM (inactive)	8.67 µM (inactive)	12.9 µM (inactive)	3.97 µM (inactive)	2.07 µM (inactive)	8.47 µM (inactive)	5.08 µM (inactive)	3.93 µM (inactive)	4.63 µM (inactive)	3.88 µM (inactive)	2.83 µM (inactive)	16.5 µM (inactive)	3.32 µM (inactive)	11.7 µM (inactive)	15.3 µM (inactive)	5.75 µM (inactive)	6.27 µM
COC[C@H](C)/N=C/N1CCc2ccccc2C1(Cc1ccccc1)Cc1ccccc1	21.9 µM (inactive)	24.8 µM (inactive)	30.4 µM (inactive)	12 µM (inactive)	10.3 µM (inactive)	29.9 µM (inactive)	12.7 µM (inactive)	6.17 µM (inactive)	13.6 µM (inactive)	47.9 µM (inactive)	15.1 µM (inactive)	10.8 µM (inactive)	17.8 µM (inactive)	10.4 µM (inactive)	16.9 µM (inactive)	6.97 µM (inactive)	68.1 µM (inactive)	17.3 µM (inactive)	12.9 µM (inactive)	11 µM
CC(C)OP(=O)(OC(C)C)c1ccc2c(c1)OCCOCCOCCOCCO2	> 100 µM (inactive)	> 100 µM (inactive)	> 100 µM (inactive)	> 100 µM (inactive)	> 100 µM (inactive)	> 100 µM (inactive)	> 100 µM (inactive)	> 100 µM (inactive)	> 100 µM (inactive)	> 100 µM (inactive)	> 100 µM (inactive)	> 100 µM (inactive)	> 100 µM (inactive)	> 100 µM (inactive)	> 100 µM (inactive)	> 100 µM (inactive)	> 100 µM (inactive)	> 100 µM (inactive)	> 100 µM (inactive)	> 100 µM
OC1CSCCSCCCSCCSC1	> 100 µM (inactive)	> 100 µM (inactive)	> 100 µM (inactive)	> 100 µM (inactive)	> 100 µM (inactive)	> 100 µM (inactive)	> 100 µM (inactive)	50.2 µM (inactive)	–	> 100 µM (inactive)	> 100 µM (inactive)	> 100 µM (inactive)	> 100 µM (inactive)	> 100 µM (inactive)	> 100 µM (inactive)	> 100 µM (inactive)	> 100 µM (inactive)	> 100 µM (inactive)	> 100 µM (inactive)	> 100 µM
S=C(NCCc1ccccn1)N/N=C(\c1ccccc1)c1ccccn1	0.222 µM (active)	1.77 µM (inactive)	3.4 µM (inactive)	0.179 µM (active)	< 0.015 µM (active)	0.0525 µM (active)	< 0.01 µM (active)	< 0.0359 µM (active)	2.76 µM (inactive)	1.45 µM (inactive)	< 0.01 µM (active)	< 0.01 µM (active)	6.47 µM (inactive)	< 0.01 µM (active)	0.815 µM (active)	< 0.01 µM (active)	< 0.0103 µM (active)	5.43 µM (inactive)	1.23 µM (inactive)	0.0277 µM
COc1ccc2[nH]cc(C=C3C(=O)NC(=S)NC3=O)c2c1	19.8 µM (inactive)	45.9 µM (inactive)	> 100 µM (inactive)	> 100 µM (inactive)	> 100 µM (inactive)	> 100 µM (inactive)	> 100 µM (inactive)	> 100 µM (inactive)	> 100 µM (inactive)	> 100 µM (inactive)	36.6 µM (inactive)	> 100 µM (inactive)	23.1 µM (inactive)	62.4 µM (inactive)	52.2 µM (inactive)	> 100 µM (inactive)	> 100 µM (inactive)	62.1 µM (inactive)	> 100 µM (inactive)	> 100 µM
O=C(O)CN1C(=O)OC(c2ccccc2)C1=O (configuration not stated)	> 100 µM (inactive)	> 100 µM (inactive)	> 100 µM (inactive)	> 100 µM (inactive)	> 100 µM (inactive)	> 100 µM (inactive)	> 100 µM (inactive)	> 100 µM (inactive)	> 100 µM (inactive)	> 100 µM (inactive)	> 100 µM (inactive)	> 100 µM (inactive)	> 100 µM (inactive)	> 100 µM (inactive)	> 100 µM (inactive)	> 100 µM (inactive)	> 100 µM (inactive)	> 100 µM (inactive)	> 100 µM (inactive)	> 100 µM
CN1CCc2c(sc3nc(S)nc(S)c23)C1	> 100 µM (inactive)	> 100 µM (inactive)	> 100 µM (inactive)	> 100 µM (inactive)	> 100 µM (inactive)	> 100 µM (inactive)	> 100 µM (inactive)	> 100 µM (inactive)	> 100 µM (inactive)	> 100 µM (inactive)	> 100 µM (inactive)	> 100 µM (inactive)	> 100 µM (inactive)	> 100 µM (inactive)	> 100 µM (inactive)	> 100 µM (inactive)	> 100 µM (inactive)	> 100 µM (inactive)	–	> 100 µM
CCCCN(CC)c1nc(C)nc2c1c(C)c(C)n2-c1c(C)cc(C)cc1C [ANTALARMIN]	17.4 µM (inactive)	17.2 µM (inactive)	14.2 µM (inactive)	13.2 µM (inactive)	22 µM (inactive)	14.2 µM (inactive)	12.8 µM (inactive)	4.1 µM (inactive)	17.6 µM (inactive)	5.21 µM (inactive)	14.2 µM (inactive)	10.1 µM (inactive)	14.3 µM (inactive)	10.9 µM (inactive)	17.1 µM (inactive)	12.5 µM (inactive)	14.5 µM (inactive)	16.4 µM (inactive)	14.7 µM (inactive)	13.6 µM
COc1cc(C2c3cc(OC)c(OC)c(O)c3C(=O)C3CCC(=O)N32)cc(OC)c1OC (configuration not stated)	69.8 µM (inactive)	> 100 µM (inactive)	> 100 µM (inactive)	> 100 µM (inactive)	> 100 µM (inactive)	> 100 µM (inactive)	26 µM (inactive)	26.4 µM (inactive)	48.2 µM (inactive)	53.1 µM (inactive)	25 µM (inactive)	93.1 µM (inactive)	63.7 µM (inactive)	25.6 µM (inactive)	63 µM (inactive)	29.3 µM (inactive)	> 100 µM (inactive)	> 100 µM (inactive)	–	> 100 µM
